ChEMBL document CHEMBL4706629, “New derivatives of 4'-phenyl-2,2':6',2″-terpyridine as promising anticancer agents” (Eur J Med Chem, 2021)
Active and inactive are the calls of the source. No cut-off for these calls is given here.

Tests used:
[1] = tested on: DNA; assay: Induction of Escherichia coli supercoiled pUC19 plasmid DNA cleavage assessed as decrease in supercoiled form of plasmid at 25 uM incubated for 60 mins by agarose gel electrophoresis analysis; type: nucleic-acid assay
[2] = tested on: MCF7; assay: Up regulation of p53 expression in human MCF7 cells at 1 to 5 uM measured after 24 hrs by Western blot analysis; type: functional, cell-based; details: dose 1-5 µM
[3] = tested on: PANC-1; assay: Induction of apoptosis in human PANC-1 cells assessed as viable cells at 7.5 uM measured after 48 hrs by Annexin V and dead cell kit analysis (reference value: 85.6%); type: functional; details: read-out: Activity
[4] = tested on: HCT-116; assay: Cytotoxicity against human HCT-116 cells assessed as reduction in cell viability measured after 72 hrs by MTS assay; type: functional, cell-based; details: HCT-116, 72 h
[5] = tested on: PANC-1; assay: Induction of apoptosis in human PANC-1 cells assessed as early apoptotic cells at 5 uM measured after 48 hrs by Annexin V and dead cell kit analysis (reference value: 10.95%); type: functional
[6] = tested on: K562; assay: Cytotoxicity against human K562 cells assessed as reduction in cell viability measured after 72 hrs by MTS assay; type: functional, cell-based; details: K562, 72 h
[7] = tested on: DNA; assay: Induction of Escherichia coli supercoiled pUC19 plasmid DNA cleavage assessed as increase in open circular form of a plasmid at 25 uM incubated for 60 mins by agarose gel electrophoresis analysis; type: nucleic-acid assay
[8] = tested on: MCF7; assay: Cell cycle arrest in human MCF7 cells assessed as accumulation at G2/M-phase at 5 uM measured after 24 hrs by muse cell analyser (reference value: 30.92 to 33.6%); type: functional
[9] = tested on: PANC-1; assay: Down regulation of cyclin E1 expression in human PANC-1 cells at 0.5 to 5 uM measured after 24 hrs by Western blot analysis; type: functional, cell-based; details: dose 0.5-5 µM
[10] = tested on: PANC-1; assay: Induction of apoptosis in human PANC-1 cells assessed as necrotic cells at 7.5 uM measured after 48 hrs by Annexin V and dead cell kit analysis (reference value: 1.05%); type: functional
[11] = tested on: MCF7; assay: Cell cycle arrest in human MCF7 cells assessed as accumulation at G0/G1-phase at 5 uM measured after 24 hrs by muse cell analyser (reference value: 52.65 to 53.3%); type: functional
[12] = tested on: MCF7; assay: Cell cycle arrest in human MCF7 cells assessed as accumulation at G0/G1-phase at 7.5 uM measured after 24 hrs by muse cell analyser (reference value: 52.65 to 53.3%); type: functional
[13] = tested on: PANC-1; assay: Up regulation of p53 expression in human PANC-1 cells at 0.5 to 5 uM measured after 24 hrs by Western blot analysis relative to control; type: functional, cell-based; details: dose 0.5-5 µM
[14] = tested on: MCF7; assay: Down regulation of p21 expression in human MCF7 cells at 5 uM measured after 24 hrs by Western blot analysis; type: functional, cell-based
[15] = tested on: MCF7; assay: Effect on cdc2 expression in human MCF7 cells at 1 to 5 uM measured after 24 hrs by Western blot analysis; type: functional, cell-based; details: dose 1-5 µM
[16] = tested on: MCF7; assay: Induction of apoptosis in human MCF7 cells measured after 48 hrs by Annexin V and dead cell kit analysis; type: functional, cell-based; details: dose 5-7.5 µM
[17] = tested on: PANC-1; assay: Cell cycle arrest in human PANC-1 cells assessed as increase in accumulation at G0/G1-phase measured after 24 hrs by muse cell analyser; type: functional, cell-based
[18] = tested on: PANC-1; assay: Induction of apoptosis in human PANC-1 cells assessed as late apoptotic cells at 5 uM measured after 48 hrs by Annexin V and dead cell kit analysis (reference value: 2.4%); type: functional

## c1ccc(-c2cn(-c3ccc(-c4cc(-c5ccccn5)nc(-c5ccccn5)c4)cc3)nn2)nc1
[1]
  Activity: Active
[2]
  Activity: inactive
[3]
  viability at 7.5 µM: 39%
[4]
  IC50: 243 nM
[5]
  Activity: 41.4%
[6]
  IC50: 916 nM
[7]
  Activity: Active
[8]
  Activity: 22.4%
[9]
  Activity: inactive
[10]
  Activity: 1.8%
[11]
  Activity: 55.97%
[12]
  Activity: 60.4%
[13]
  Activity: inactive
[14]
  Activity: Active
[15]
  Activity: inactive
[16]
  Activity: Dose-dependent effect
[17]
  Activity: Dose-dependent effect
[18]
  Activity: 8.75%
